Reference: patent US11903944B1, “Experimental model using pazopanib-induced cardiotoxicity” (KING FAISAL UNIVERSITY, priority 2023, dated 2024)

Assays:
Assay type in all cases: in vivo, Male Sprague Dawley rats
[1] = Blood pressure recording, noninvasive tail-cuff system, experimental animal model for hypertension; conditions: 30 mg/kg twice daily orally for 14 days; compared to normal animals
Experimental: (§1) This experimental protocol was permitted by the Institutional Animal Care and Use Committee of King Faisal University. All the experiments were executed in harmony with the relevant procedures and regulations of the Ethical Conduct for the Use of Animals in Research at King Faisal University. Male Sprague Dawley rats weighing 150-200 g were purchased and accommodated in polypropylene cages and upheld at 27±2° C. under a 12 h light/dark sequence. Rats were kept and observed for 1 week in the animal house. The animals were fed with standard rat feed and allowed water ad libitum.
(§2) Animals were distributed into 5 groups, each group containing 6 rats (n=6). Group 1 is the control group in which animals were injected with normal saline intraperitoneally (IP). Group 2: The animals were treated with Pazopanib 30 mg/kg twice daily orally for 14 days to induce hypertension. This group represents the “Experimental animal model for hypertension.” Group 3: The animals were treated with Pazopanib 100 mg/kg orally as a single dose. This group represents the “Experimental animal model for arrhythmia.” Group 4: The animals were treated with Pazopanib 300 mg/kg/day orally for 21 days. This group represents the “Experimental animal model for Cardiac toxicity (oral)” Group 5: The animals were treated with Pazopanib 21 mg/kg/day intraperitoneally (IP) for 30 days. This group represents the “Experimental animal model for Cardiac toxicity (IP)”
Blood pressure measurements were performed using a noninvasive computerized tail-cuff system from Emka Technologies' Systems (Paris, France), which involved placing a cuff on the animal's tail to occlude the blood flow. The pressure was raised and then slowly released. The cuff pressure when the pulse signal reappears is intended as the systolic pressure. […]
(§3) Data were expressed as mean±standard error of the mean (SEM) for six animals (n=6) in each group. Statistically significant differences between the groups were determined using one-way ANOVA followed by Tukey's test as a post-hoc analysis. […]

[2] = tested on: Toll-Like Receptors 4 (TLR4) gene expressions; test: TLR4 gene expression in cardiac tissue by real-time quantitative PCR
Experimental: as §1
Animals were distributed into 5 groups, each group containing 6 rats (n=6). Group 1 is the control group in which animals were injected with normal saline intraperitoneally (IP). Group 2: The animals were treated with Pazopanib 30 mg/kg twice daily orally for 14 days to induce hypertension. This group represents the “Experimental animal model for hypertension.” Group 3: The animals were treated with Pazopanib 100 mg/kg orally as a single dose. […] This group represents the “Experimental animal model for Cardiac toxicity (IP)”
Blood samples were collected, and centrifuged (10 min/4000 rpm) to separate serum which was then stored in a −80° C. for biochemical analysis. […]
Total RNA was extracted from the cardiac tissue samples according to the Trizol kit instructions. […] The TLR4 primer (5′-[…]-3′ (SEQ ID NO: 1), 3′-[…]-5′ (SEQ ID NO: 2)), TLR2 (5′-[…]-3′ (SEQ ID NO: 3), 3′-[…]-5′ (SEQ ID NO: 4)), MYD88 (5′-[…]-3′ (SEQ ID NO: 5), 3′-[…]-5′ (SEQ ID NO: 6)) were used to detect and quantify related genes in the cDNA using Real-time quantitative PCR. In a 25 μL reaction volume, PCR was performed as follows: initial denaturation for 4 min at 94° C., followed by denaturation for 30 s at 94° C., annealing for 30 s at 62° C., and extension for 2 min at 72° C. for 35 cycles, and final extension for 10 min at 72° C. qPCR was applied using SYBR ExScript RT-PCR kit, and quantification examinations were accomplished via an Opticon-2 Real-time PCR reactor (MJ Research, Capital Court, Reno, NV, USA). qPCR results were obtained using Step PE Applied Biosystems (Waltham, MA, USA) software. Relative gene expression data were calculated using the (2-ΔΔCq2) method and presented as a fold change. Target gene expressions were assessed and related to the internal reference β-actin gene using the primer (5′-ATCCTGCGTCTGGACCTGG-3′ (SEQ ID NO: 7), 5′-[…]-3′ (SEQ ID NO: 8)), and the results were presented in the figures as relative expressions.
as §3

[3] = Electrocardiogram (ECG) recording for arrhythmia identification, experimental animal model for arrhythmia; conditions: 100 mg/kg orally single dose, after 3 hours
Experimental: as §1, §2
At the end of the experiments, urethane-anaesthetized rats (1.5 g/kg) were placed in a prone position on a board, and an ECG was continuously recorded using noninvasive computerized ECG apparatus from Kent Scientific (Torrington, CT, USA). Heart rate, ST segment, P wave, QT, P-R and R-R intervals, and QRS complex were calculated from ECG recordings electronically.
(§4) Data were expressed as mean±standard error of the mean (SEM) for six animals (n=6) in each group. Statistically significant differences between the groups were determined using one-way ANOVA followed by Tukey's test as a post-hoc analysis. In all cases, probability values of p<0.05 were taken as statistically significant.

[4] = Cardiac toxicity identification: serum cardiac marker levels by ELISA; conditions: compared with normal rats, p<0.05
Experimental: as §1
Animals were distributed into 5 groups, each group containing 6 rats (n=6). Group 1 is the control group in which animals were injected with normal saline intraperitoneally (IP). Group 2: The animals were treated with Pazopanib 30 mg/kg twice daily orally for 14 days to induce hypertension. This group represents the “Experimental animal model for hypertension.” Group 3: The animals were treated with Pazopanib 100 mg/kg orally as a single dose. This group represents the “Experimental animal model for arrhythmia.” Group 4: The animals were treated with Pazopanib 300 mg/kg/day orally for 21 days. […] This group represents the “Experimental animal model for Cardiac toxicity (IP)”
Blood samples were collected, and centrifuged (10 min/4000 rpm) to separate serum which was then stored in a −80° C. for biochemical analysis. Thereafter, the anaesthetized animals were sacrificed, and the hearts of different investigational groups were separated, and stored in a −80° C. for subsequent biochemical parameters determination.
ELISA kits, following the manufacturer's instructions, were used to measure serum cardiac marker levels of CPK, CK-MB, cTnT, cTnI and LDH.
as §4

[5] = 30 mg/kg/day intraperitoneally (IP) for 21 days
[6] = 300 mg/kg/day orally for 21 days

**Q.** Which diastolic blood pressure [1] does the source give for `Cc1ccc(Nc2nccc(N(C)c3ccc4c(C)n(C)nc4c3)n2)cc1S(N)(=O)=O` [Pazopanib] here?
**A.** elevated

**Q.** And the mean blood pressure [1]?
**A.** elevated

**Q.** And the systolic blood pressure [1]?
**A.** elevated

**Q.** What about the TLR4 gene expression ([2]; arrhythmia model: 100 mg/kg orally as a single dose) of the same compound?
**A.** significantly increased

**Q.** What about the TLR4 gene expression ([2]; cardiotoxicity model: 30 mg/kg/day intraperitoneally (IP) for 30 days) of the same compound?
**A.** significantly increased

**Q.** And the TLR4 gene expression ([2]; cardiotoxicity model: 300 mg/kg/day orally for 30 days)?
**A.** significantly increased

**Q.** What about the TLR4 gene expression ([2]; hypertension model: 30 mg/kg twice daily orally for 14 days) of the same compound?
**A.** significantly increased

**Q.** And the P-R interval [3]?
**A.** shortening

**Q.** And the R-R interval [3]?
**A.** shortening

**Q.** What about the p wave duration [3] of the same compound?
**A.** shortening

**Q.** What about the “QRS interval (QRS complex duration)” value ([3]; compared to control, p<0.05) of the same compound?
**A.** prolongation

**Q.** What about the QT interval ([3]; compared to control, p<0.05) of the same compound?
**A.** prolongation

**Q.** And the ST segment amplitude ([3]; compared to control, p<0.05)?
**A.** elevation

**Q.** What about the “serum cardiac troponin I (cTnI)” value [4, 5] of the same compound?
**A.** augmented

**Q.** And the “serum cardiac troponin T (cTnT)” value [4, 5]?
**A.** augmented

**Q.** And the “serum creatine kinase-myocardial bound (CK-MB)” value [4, 5]?
**A.** augmented

**Q.** And the “serum creatine phosphokinase (CPK)” value [4, 5]?
**A.** augmented

**Q.** What about the “serum lactate dehydrogenase (LDH)” value [4, 5] of the same compound?
**A.** augmented

**Q.** And the “serum cardiac troponin I (cTnI)” value [4, 6]?
**A.** augmented

**Q.** What about the “serum cardiac troponin T (cTnT)” value [4, 6] of the same compound?
**A.** augmented

**Q.** What about the “serum creatine kinase-myocardial bound (CK-MB)” value [4, 6] of the same compound?
**A.** augmented

**Q.** And the “serum creatine phosphokinase (CPK)” value [4, 6]?
**A.** augmented

**Q.** What about the “serum lactate dehydrogenase (LDH)” value [4, 6] of the same compound?
**A.** augmented
